Data from the supplement of paper PMC10307832.

What was measured:
Test in all cases: relative viability (nuclei count vs DMSO), 5 days (fraction); higher = more cells survive
HCC-44 = tested on: HCC-44
Summary of the method: (§1)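 For relative viability, nuclei counts in treated wells were divided by those in vehicle wells. Lung cancer cell lines had been pin-tool dosed in 1536-well plates the day after seeding and cultured for 5 days, then fixed and stained in one step (final 0.05% Triton X-100, 1% formaldehyde, 1 ug/ml Hoechst) and imaged at 4×. Doses were one drug alone or a fixed anchor-drug dose plus five library-drug doses (not always all listed) in √10 steps, and values are duplicate-plate medians.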

NCI-H650 = tested on: NCI-H650
Summary of the method: as §1

HCC-15 = tested on: HCC-15
Summary of the method: as §1

NCI-H1437 = tested on: NCI-H1437
Summary of the method: as §1

A-427 = tested on: A-427
Summary of the method: as §1

BEN = tested on: BEN
Summary of the method: as §1

SW 900 = tested on: SW 900
Summary of the method: as §1

SK-MES-1 = tested on: SK-MES-1
Summary of the method: as §1

HARA = tested on: HARA
Summary of the method: as §1

NCI-H1792 = tested on: NCI-H1792
Summary of the method: as §1

EKVX = tested on: EKVX
Summary of the method: as §1

NCI-H358 = tested on: NCI-H358
Summary of the method: as §1

HCC-827 = tested on: HCC-827
Summary of the method: as §1

NCI-H23 = tested on: NCI-H23
Summary of the method: as §1

201T = tested on: 201T
Summary of the method: as §1

NCI-H1975 = tested on: NCI-H1975
Summary of the method: as §1

COR-L23 = tested on: COR-L23
Summary of the method: as §1

NCI-H441 = tested on: NCI-H441
Summary of the method: as §1

NCI-H1650 = tested on: NCI-H1650
Summary of the method: as §1

NCI-H596 = tested on: NCI-H596
Summary of the method: as §1

NCI-H2342 = tested on: NCI-H2342
Summary of the method: as §1

NCI-H838 = tested on: NCI-H838
Summary of the method: as §1

## Nc1ccn([C@@H]2O[C@H](CO)[C@@H](O)[C@@H]2O)c(=O)n1 [Cytarabine] + O=C(c1cc(Cc2n[nH]c(=O)c3ccccc23)ccc1F)N1CCN(C(=O)C2CC2)CC1 [Olaparib] (partner 8 µM)
HCC-44; first compound 0.005 µM
  relative viability: 1.03
HCC-44; first compound 0.01581 µM
  relative viability: 1.05
HCC-44; first compound 0.05 µM
  relative viability: 0.975
HCC-44; first compound 0.1581 µM
  relative viability: 0.896
HCC-44; first compound 0.5 µM
  relative viability: 0.848
NCI-H650; first compound 0.005 µM
  relative viability: 0.363
NCI-H650; first compound 0.01581 µM
  relative viability: 0.277
NCI-H650; first compound 0.05 µM
  relative viability: 0.169
NCI-H650; first compound 0.1581 µM
  relative viability: 0.14
NCI-H650; first compound 0.5 µM
  relative viability: 0.156
HCC-15; first compound 0.005 µM
  relative viability: 0.706
HCC-15; first compound 0.01581 µM
  relative viability: 0.655
HCC-15; first compound 0.05 µM
  relative viability: 0.841
HCC-15; first compound 0.1581 µM
  relative viability: 0.649
HCC-15; first compound 0.5 µM
  relative viability: 0.539
NCI-H1437; first compound 0.005 µM
  relative viability: 0.529
NCI-H1437; first compound 0.01581 µM
  relative viability: 0.51
NCI-H1437; first compound 0.05 µM
  relative viability: 0.469
NCI-H1437; first compound 0.1581 µM
  relative viability: 0.283
NCI-H1437; first compound 0.5 µM
  relative viability: 0.234
A-427; first compound 0.005 µM
  relative viability: 0.479
A-427; first compound 0.01581 µM
  relative viability: 0.551
A-427; first compound 0.05 µM
  relative viability: 0.304
A-427; first compound 0.1581 µM
  relative viability: 0.223
A-427; first compound 0.5 µM
  relative viability: 0.253
BEN; first compound 0.005 µM
  relative viability: 0.822
BEN; first compound 0.01581 µM
  relative viability: 0.703
BEN; first compound 0.05 µM
  relative viability: 0.637
BEN; first compound 0.1581 µM
  relative viability: 0.447
BEN; first compound 0.5 µM
  relative viability: 0.384
SW 900; first compound 0.005 µM
  relative viability: 0.899
SW 900; first compound 0.01581 µM
  relative viability: 0.797
SW 900; first compound 0.05 µM
  relative viability: 0.413
SW 900; first compound 0.1581 µM
  relative viability: 0.242
SW 900; first compound 0.5 µM
  relative viability: 0.296
SK-MES-1; first compound 0.005 µM
  relative viability: 0.619
SK-MES-1; first compound 0.01581 µM
  relative viability: 0.527
SK-MES-1; first compound 0.05 µM
  relative viability: 0.313
SK-MES-1; first compound 0.1581 µM
  relative viability: 0.173
SK-MES-1; first compound 0.5 µM
  relative viability: 0.183
HARA; first compound 0.005 µM
  relative viability: 0.928
HARA; first compound 0.01581 µM
  relative viability: 0.413
HARA; first compound 0.05 µM
  relative viability: 0.487
HARA; first compound 0.1581 µM
  relative viability: 0.179
HARA; first compound 0.5 µM
  relative viability: 0.162
NCI-H1792; first compound 0.01581 µM
  relative viability: 0.399
NCI-H1792; first compound 0.05 µM
  relative viability: 0.248
NCI-H1792; first compound 0.1581 µM
  relative viability: 0.167
NCI-H1792; first compound 0.5 µM
  relative viability: 0.0776
EKVX; first compound 0.005 µM
  relative viability: 0.819
EKVX; first compound 0.01581 µM
  relative viability: 0.665
EKVX; first compound 0.05 µM
  relative viability: 0.695
EKVX; first compound 0.5 µM
  relative viability: 0.234
NCI-H358; first compound 0.005 µM
  relative viability: 0.443
NCI-H358; first compound 0.01581 µM
  relative viability: 0.491
NCI-H358; first compound 0.05 µM
  relative viability: 0.379
NCI-H358; first compound 0.1581 µM
  relative viability: 0.145
NCI-H358; first compound 0.5 µM
  relative viability: 0.115
HCC-827; first compound 0.005 µM
  relative viability: 0.459
HCC-827; first compound 0.01581 µM
  relative viability: 0.367
HCC-827; first compound 0.05 µM
  relative viability: 0.0662
HCC-827; first compound 0.1581 µM
  relative viability: 0.159
HCC-827; first compound 0.5 µM
  relative viability: 0.189
NCI-H23; first compound 0.005 µM
  relative viability: 0.387
NCI-H23; first compound 0.01581 µM
  relative viability: 0.244
NCI-H23; first compound 0.05 µM
  relative viability: 0.227
NCI-H23; first compound 0.1581 µM
  relative viability: 0.121
NCI-H23; first compound 0.5 µM
  relative viability: 0.148
201T; first compound 0.005 µM
  relative viability: 0.832
201T; first compound 0.01581 µM
  relative viability: 0.877
201T; first compound 0.05 µM
  relative viability: 0.914
201T; first compound 0.1581 µM
  relative viability: 0.847
201T; first compound 0.5 µM
  relative viability: 0.827
NCI-H1975; first compound 0.005 µM
  relative viability: 0.671
NCI-H1975; first compound 0.01581 µM
  relative viability: 0.871
NCI-H1975; first compound 0.05 µM
  relative viability: 0.561
NCI-H1975; first compound 0.1581 µM
  relative viability: 0.429
NCI-H1975; first compound 0.5 µM
  relative viability: 0.253
COR-L23; first compound 0.005 µM
  relative viability: 0.305
COR-L23; first compound 0.01581 µM
  relative viability: 0.309
COR-L23; first compound 0.05 µM
  relative viability: 0.275
COR-L23; first compound 0.1581 µM
  relative viability: 0.131
COR-L23; first compound 0.5 µM
  relative viability: 0.124
NCI-H441; first compound 0.005 µM
  relative viability: 0.451
NCI-H441; first compound 0.01581 µM
  relative viability: 0.48
NCI-H441; first compound 0.05 µM
  relative viability: 0.375
NCI-H441; first compound 0.1581 µM
  relative viability: 0.354
NCI-H441; first compound 0.5 µM
  relative viability: 0.175
NCI-H1650; first compound 0.005 µM
  relative viability: 0.638
NCI-H1650; first compound 0.01581 µM
  relative viability: 0.772
NCI-H1650; first compound 0.05 µM
  relative viability: 0.472
NCI-H1650; first compound 0.1581 µM
  relative viability: 0.268
NCI-H1650; first compound 0.5 µM
  relative viability: 0.168
NCI-H596; first compound 0.005 µM
  relative viability: 0.678
NCI-H596; first compound 0.01581 µM
  relative viability: 0.692
NCI-H596; first compound 0.05 µM
  relative viability: 0.591
NCI-H596; first compound 0.1581 µM
  relative viability: 0.549
NCI-H596; first compound 0.5 µM
  relative viability: 0.435
NCI-H2342; first compound 0.005 µM
  relative viability: 0.477
NCI-H2342; first compound 0.01581 µM
  relative viability: 0.477
NCI-H2342; first compound 0.05 µM
  relative viability: 0.468
NCI-H2342; first compound 0.1581 µM
  relative viability: 0.389
NCI-H2342; first compound 0.5 µM
  relative viability: 0.31
NCI-H838; first compound 0.005 µM
  relative viability: 0.633
NCI-H838; first compound 0.01581 µM
  relative viability: 0.655
NCI-H838; first compound 0.05 µM
  relative viability: 0.643
NCI-H838; first compound 0.1581 µM
  relative viability: 0.278
NCI-H838; first compound 0.5 µM
  relative viability: 0.197
